In paper PMC11169512, “Structural basis for urate recognition and apigenin inhibition of human GLUT9” (Nature Communications, 2024):
Positions count from the first letter of the chain named.

Experiments:
Format in all cases: binding
GLUT9 [1] = target: T1, GLUT9 (Homo sapiens, UniProt Q9NRM0, Y327Q); experiment: MST with purified protein
T1 construct: gene SLC2A9; full length human SLC2A9, N-terminal twin strep and FLAG tag
T1 sequence (Q9NRM0 1-540 Y327Q): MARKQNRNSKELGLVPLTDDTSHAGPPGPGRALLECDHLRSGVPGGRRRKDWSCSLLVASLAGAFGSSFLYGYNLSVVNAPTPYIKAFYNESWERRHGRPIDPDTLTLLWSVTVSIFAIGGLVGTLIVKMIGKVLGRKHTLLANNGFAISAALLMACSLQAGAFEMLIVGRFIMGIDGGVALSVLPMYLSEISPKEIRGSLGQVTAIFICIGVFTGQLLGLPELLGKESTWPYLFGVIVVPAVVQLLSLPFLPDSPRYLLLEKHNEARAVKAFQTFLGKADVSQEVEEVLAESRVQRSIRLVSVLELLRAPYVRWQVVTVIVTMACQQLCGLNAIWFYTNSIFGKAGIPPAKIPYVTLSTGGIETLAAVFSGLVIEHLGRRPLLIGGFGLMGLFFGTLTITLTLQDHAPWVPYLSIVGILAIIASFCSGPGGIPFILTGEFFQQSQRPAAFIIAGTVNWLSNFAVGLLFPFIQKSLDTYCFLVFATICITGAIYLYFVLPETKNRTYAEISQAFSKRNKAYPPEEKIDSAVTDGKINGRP

GLUT9 [2] = target: T2, GLUT9 (Homo sapiens, UniProt Q9NRM0, N333A); experiment: MST with purified protein
T2 construct: gene SLC2A9; full length human SLC2A9, N-terminal twin strep and FLAG tag
T2 sequence (Q9NRM0 1-540 N333A): T1 sequence (Q9NRM0 1-540 Y327Q) with Q327Y, N333A

GLUT9 [3] = target: T3, GLUT9 (Homo sapiens, UniProt Q9NRM0, E364A); experiment: MST with purified protein
T3 construct: gene SLC2A9; full length human SLC2A9, N-terminal twin strep and FLAG tag
T3 sequence (Q9NRM0 1-540 E364A): T1 sequence (Q9NRM0 1-540 Y327Q) with Q327Y, E364A

GLUT9 [4] = target: T4, GLUT9 (Homo sapiens, UniProt Q9NRM0, W336F); experiment: MST with purified protein
T4 construct: gene SLC2A9; full length human SLC2A9, N-terminal twin strep and FLAG tag
T4 sequence (Q9NRM0 1-540 W336F): T1 sequence (Q9NRM0 1-540 Y327Q) with Q327Y, W336F

GLUT9 [5] = target: T5, GLUT9 (Homo sapiens, UniProt Q9NRM0); experiment: cryo-EM structure ([…] Å), MST Kd; patch clamp transport current
T5 construct: gene SLC2A9; full length human SLC2A9, N-terminal twin strep and FLAG tag
T5 sequence (Q9NRM0 1-540): T1 sequence (Q9NRM0 1-540 Y327Q) with Q327Y

GLUT9 [6] = target: T6, GLUT9 (Homo sapiens, UniProt Q9NRM0, N458A); experiment: MST with purified protein
T6 construct: gene SLC2A9; full length human SLC2A9, N-terminal twin strep and FLAG tag
T6 sequence (Q9NRM0 1-540 N458A): T1 sequence (Q9NRM0 1-540 Y327Q) with Q327Y, N458A

GLUT9 [7] = target: T5, GLUT9; experiment: cryo-EM structure ([…] Å), MST Kd; patch clamp IC50 […]
GLUT9 [8] = target: T7, GLUT9 (Homo sapiens, UniProt Q9NRM0, Y327A); experiment: MST with purified protein
T7 construct: gene SLC2A9; full length human SLC2A9, N-terminal twin strep and FLAG tag
T7 sequence (Q9NRM0 1-540 Y327A): T1 sequence (Q9NRM0 1-540 Y327Q) with Q327A

GLUT9 [9] = target: T8, GLUT9 (Homo sapiens, UniProt Q9NRM0, W336A); experiment: MST with purified protein
T8 construct: gene SLC2A9; full length human SLC2A9, N-terminal twin strep and FLAG tag
T8 sequence (Q9NRM0 1-540 W336A): T1 sequence (Q9NRM0 1-540 Y327Q) with Q327Y, W336A

GLUT9 [10] = target: T9, GLUT9 (Homo sapiens, UniProt Q9NRM0, C427A); experiment: MST with purified protein
T9 construct: gene SLC2A9; full length human SLC2A9, N-terminal twin strep and FLAG tag
T9 sequence (Q9NRM0 1-540 C427A): T1 sequence (Q9NRM0 1-540 Y327Q) with Q327Y, C427A

| Kd (GLUT9 [1]) | Kd (GLUT9 [2]) | Kd (GLUT9 [3]) | Kd (GLUT9 [4]) | Kd (GLUT9 [5]) | Structure (SMILES) | Kd (GLUT9 [6]) | Kd (GLUT9 [7]) | Kd (GLUT9 [8]) | Kd (GLUT9 [9]) | Kd (GLUT9 [10]) |
| --- | --- | --- | --- | --- | --- | --- | --- | --- | --- | --- |
| 867 ± 168 µM | 472 ± 52.2 µM | 681 ± 126 µM | 361 ± 80.3 µM | 231 ± 17.1 µM | O=c1[nH]c(=O)c2[nH]c(=O)[nH]c2[nH]1 [UA, urate] | – | – | – | – | – |
| – | – | – | – | – | O=c1cc(-c2ccc(O)cc2)oc2cc(O)cc(O)c12 [API, apigenin] | 4.1 ± 1.1 µM | 0.5 ± 0.1 µM | 2.2 ± 0.7 µM | 1.3 ± 0.3 µM | 1 ± 0.2 µM |
